Reference: patent publication US8759400B2, “Histone deacetylase inhibitors for enhancing activity of antifungal agents” (MethylGene Inc., priority 2005, dated 2014)
Converted amounts (≈) assume the structure as drawn. “And” between values parts separate entries of the source, which are not always exact repeats. Identical values can stand only once.

What was measured:
A. fumigatus ATCC 1022 = test: MIC80 and checkerboard synergy, broth microdilution (NCCLS M38-A); format: cell-based, Aspergillus fumigatus
C. parapsilosis (22019) = test: MIC and checkerboard synergy with azoles; format: cell-based, Candida parapsilosis
Experimental: (§1) For susceptibility studies, overnight cultures of both Candida species are diluted 1:100 in YEPD medium, grown for 4 h at 30° C., counted in a hemocytometer, then diluted to a concentration of 5×10^3 cells/ml. […] Synergy, determined by the checkerboard method, is defined as a decrease in MIC of antifungal agent that is more than additive of the MIC of the histone deacetylase inhibitor and the antifungal agent alone.

C. krusei (14243) = test: MIC and checkerboard synergy with azoles; format: cell-based, Candida krusei
Experimental: as §1

C. dubliniensis = test: Clinical isolates, CLSI M27-A2 broth microdilution and checkerboard; format: cell-based
C. tropicalis = test: as above; format: cell-based
C. krusei = test: as above; format: cell-based; conditions: for minimum Compound 4 concentration at which Compound 4 alone inhibited growth (number in brackets): C. krusei clinical isolates
A. fumigatus = test: Clinical isolates, CLSI M38-A broth microdilution and checkerboard; format: cell-based
Aspergillus spp. = test: Clinical isolates, checkerboard, summary over 16 isolates; format: cell-based
Aspergillus terreus = test: Clinical isolates of other fungal species, checkerboard; format: cell-based
Pseudallescheria boydii = test: as above; format: cell-based
Histoplasma = test: microbe, parasite or virus in culture; format: cell-based
HMEC = test: Mammalian cytotoxicity, MTT reduction
[1] = Cpd 4 with fluconazole, C. dubliniensis clinical isolates
[2] = Cpd 4 with voriconazole, C. dubliniensis clinical isolates
[3] = Aspergillus spp. clinical isolates

O=C(Cc1ccc(CCCCc2ccccc2)cc1)NO [Cpd 4]
MIC (A. fumigatus ATCC 1022; Aspergillus fumigatus, ATCC1022, A. fumigatus (1022), read-out: Cpd 4 MIC): 2 to 5 µg/mL
Cpd 4 Conc for 4-fold synergy (A. fumigatus ATCC 1022; with itraconazole, A. fumigatus (1022)): 5 µg/mL
Cpd 4 Conc for 4-fold synergy (A. fumigatus ATCC 1022; with ketoconazole, A. fumigatus (1022)): 2.5 µg/mL
conc. for 4-fold synergy (A. fumigatus ATCC 1022; with ketoconazole, A. fumigatus ATCC 1022, 48 hours): 0.5 µg/mL
Cpd 4 Conc for 4-fold synergy (A. fumigatus ATCC 1022; with voriconazole, A. fumigatus (1022)): 5 µg/mL
MIC (C. parapsilosis (22019); Lodderomyces parapsilosis, read-out: Cpd 4 MIC): 0.39 to 0.78 µg/mL
Cpd 4 Conc for 4-fold synergy (C. parapsilosis (22019); with ketoconazole): 0.2 µg/mL
Cpd 4 Conc for 4-fold synergy (C. parapsilosis (22019); with voriconazole): 0.049 µg/mL
MIC (C. krusei (14243); Pichia kudriavzevii, read-out: Cpd 4 MIC): 3.1 to 6.3 µg/mL
Cpd 4 Conc for 4-fold synergy (C. krusei (14243); with itraconazole): 0.39 µg/mL
Cpd 4 Conc for 4-fold synergy (C. krusei (14243); with ketoconazole): 0.39 µg/mL
Cpd 4 Conc for 4-fold synergy (C. krusei (14243); with voriconazole): 0.39 µg/mL
FLU/Cpd 4 FIC (C. dubliniensis; [1]): 2.0
FLU/Cpd 4 FIC interpretation (C. dubliniensis; [1]): (I) (I = indifference)
VOR/Cpd 4 FIC (C. dubliniensis; [2]): 2.0
VOR/Cpd 4 FIC interpretation (C. dubliniensis; [2]): (I) (I = indifference)
minimum Compound 4 concentration at which Compound 4 alone inhibited growth (number in brackets) (C. dubliniensis; FLU checkerboard, C. dubliniensis clinical isolates): 0.03 µg/mL
minimum Compound 4 concentration at which Compound 4 alone inhibited growth (number in brackets) (C. dubliniensis; VOR checkerboard, C. dubliniensis clinical isolates): 0.12 µg/mL
activity of Compound 4 alone (C. dubliniensis; all 4 clinical isolates of C. dubliniensis): potent activity alone
Conc. Cpd 4 for 4-fold decrease (C. tropicalis; 4-fold reduction of FLU MIC): 0.5 µg/mL
VOR/Cpd 4 FIC interpretation (C. tropicalis; Cpd 4 with voriconazole): (S) (S = synergy)
FLU/Cpd 4 FIC interpretation (C. krusei; Cpd 4 with fluconazole, C. krusei clinical isolates and QC 6258): (S) (S = synergy)
VOR/Cpd 4 FIC (C. krusei; Cpd 4 with voriconazole, C. krusei clinical isolates and QC 6258): 0.6 and 0.5 and 0.3
minimum Compound 4 concentration at which Compound 4 alone inhibited growth (number in brackets) (C. krusei; FLU checkerboard): 0.5 µg/mL
minimum Compound 4 concentration at which Compound 4 alone inhibited growth (number in brackets) (C. krusei; VOR checkerboard): 0.25 µg/mL and 0.5 µg/mL
ITR/Cpd 4 FIC interpretation (A. fumigatus; Cpd 4 with itraconazole): (S) (S = synergy)
VOR/Cpd 4 FIC interpretation (A. fumigatus; Cpd 4 with voriconazole): (S) (S = synergy)
minimum Compound 4 concentration at which Compound 4 alone inhibited growth (number in brackets) (A. fumigatus; ITR checkerboard): 4.0 µg/mL
Compound 4 concentrations required for 4-fold reductions in azole MIC (Aspergillus spp.; [3]): 1 to 8 µg/mL
in vitro antagonism of Compound 4-azole combination (Aspergillus spp.; [3]): none of the isolates tested
number of isolates with additivity (Aspergillus spp.; Compound 4 with VOR and ITR, of 16 Aspergillus spp. isolates): 4
number of isolates with synergy (Aspergillus spp.; Compound 4 with both VOR and ITR, of 16 Aspergillus spp. isolates): 11
Synergy with Cpd 4 (strains showing synergy/total strains tested) Itraconazole (Aspergillus terreus; Aspergillus terreus): 3/3
Synergy with Cpd 4 (strains showing synergy/total strains tested) Voriconazole (Aspergillus terreus; Aspergillus terreus): 3/3
MIC (Aspergillus terreus; Aspergillus terreus clinical isolates, read-out: Cpd 4 MIC): > 8 µg/mL
Synergy with Cpd 4 (strains showing synergy/total strains tested) Itraconazole (Pseudallescheria boydii; Pseudallescheria boydii): 0/3
Synergy with Cpd 4 (strains showing synergy/total strains tested) Voriconazole (Pseudallescheria boydii; Pseudallescheria boydii): 0/3
MIC (Pseudallescheria boydii; Scedosporium boydii, Pseudallescheria boydii clinical isolates, read-out: Cpd 4 MIC): 2 µg/mL
Synergy with Cpd 4 (strains showing synergy/total strains tested) Itraconazole (Histoplasma): 0/3
Synergy with Cpd 4 (strains showing synergy/total strains tested) Voriconazole (Histoplasma): 0/3
MIC (Histoplasma; read-out: Cpd 4 MIC): 1 to 2 µg/mL (≈ 3.53 to 7.06 µM)
MTT HMEC (HMEC): 13 µM
